# Measured values published in patent US12503717B2, “Systems and methods for modeling disease and assessing adverse side effects of therapeutics therefor” (NOVOHEART INTERNATIONAL LIMITED, priority 2016, dated 2025).
# Marks after values point to notes of the source that are not given here.
# Assays:
# [1] = test system: hvCAS (human ventricular cardiac anisotropic sheet of HES2 hESC-derived ventricular cardiomyocytes); assay type: cell-based
# Protocol: hvCAS preparations were loaded with di-8-ANEPPS (10 μM; D-3167; Molecular Probes)/[…] (0.04%; P-3000MP; Life Technologies) for 1 hour at 37° C. in DMEM-F12, followed by incubation at room temperature (RT) for 15 minutes in Blebbistatin (50 μM, B0560; Sigma-Aldrich) in Tyrode's solution. Tyrode's solution consists of 140 mM NaCl, 5 mM KCl, 1 mM MgCl2, 1 mM CaCl2, 10 mM D-glucose, and 10 mM HEPES at pH 7.4 to minimize potential interference of optical mapping signals by motion artifacts. The dye-loaded hvCAS preparations were bathed in Tyrode's solution which was maintained at 35-37° C. using a culture dish incubator (Warners Instruments). High-resolution optical mapping of AP and conduction properties was performed using a MiCam Ultima (SciMedia, CA, USA) with a 1× objective and a 1× condensing lens to yield a 10 mm by 10 mm field of view. Fluorescence imaging was performed using a halogen light filtered by a 515±35 nm band-pass excitation filter and a 590 nm high-pass emission filter. Data were collected at a sampling rate of 200 Hz and analyzed using BVAna software (SciMedia). A programmable stimulator (Master8; AMPI, Israel) was enrolled to deliver pacing stimuli (10V, 10-ms pulse duration) via a unipolar point-stimulation electrode (Harvard Apparatus, MA, USA) placed perpendicular to the hvCAS surface.
# A point stimulation was applied at the center of an […] preparation following the schematic illustration (FIG. 2E) and steady state pacing (10 ms, 10 V) was first applied from 0.5 Hz through to 3 Hz (i.e., 30 to 180 bpm) with 0.5 Hz increments, unless there was a loss of 1:1 capture using Master-8 (AMPI, Israel). A standard (S1-S2) programmed electrical stimulation (PES) protocol was then introduced to further evaluate arrhythmogenicity, similar to what has been previously described^[15]. A train of eight S1 stimuli was delivered at 1.5 Hz followed by a premature extra stimulus (S2) with S1-S2 interval initiated at 550 ms and consecutively shortened in steps of 50 ms until capture failed.
# A set of selection criteria was strictly followed before an hvCAS was employed for subsequent drug testing procedures to ensure fair comparison. In particular, the selection criteria included (1) observation of a consistent propagation signal across the whole field of view, (2) a maximum capture frequency of at least 1.5 Hz and (3) no re-entry at baseline. Drugs were then added at three cumulative doses to cover the therapeutic range and HERG IC50 was determined using a conventional technique known in the art.^[33] All drugs were purchased from Sigma-aldrich (MO, USA). […] Steady-state pacing and PES were repeated, as described above, for each dose unless re-entry occurred before the highest dose was applied. Action potential parameters and conduction properties were subsequently analyzed using Clampfit, with APD90 defined as the time from the peak to 90% repolarization. Data are individually presented as mean±SD and statistically compared using Student's t-test with p<0.05 considered statistically significant.
# [2] = cited from earlier work
Compound,"Chirality of Re-entry: Anticlock-wise ([1]; human, pH 7.4)","Chirality of Re-entry: Clock-wise ([1]; human, pH 7.4)","Chirality of Re-entry: Figure-of-eight ([1]; human, pH 7.4)","Chirality of Re-entry: Multi-origin ([1]; human, pH 7.4)","Frequency of re-entries (Mean ± SD) ([1]; human, pH 7.4)","No. of Re-entry, 1st dose ([1]; human, pH 7.4)","No. of Re-entry, 2nd dose ([1]; human, pH 7.4)","No. of Re-entry, 3rd dose ([1]; human, pH 7.4)",effect on AP at relatively low doses [1],"fold increase in risk compared to the vehicle control (DMSO) ([1]; human, 300 nM, pH 7.4) [fold]","reentrant events at relatively low doses ([1]; human, pH 7.4)",arrhythmic risk compared to the respective vehicle control (FIG. 3H) [1],"fold increase in incidence rate or arrhythmic risk normalized to corresponding vehicle control ([1]; human, pH 7.4) [fold]",risk of arrhythmia or sudden death during hospitalization ([2]; nested case-control study),serum concentration associated with clinical TdP ([2]; serum) [µM],"clinical QT prolongation / TdP liability ([2]; human, in vivo)"
"CC(=O)Oc1ccccc1C(=O)O [ASP, aspirin]",,,,,,,,,,,,lower risk,,,,
"COc1cc(N)c(Cl)cc1C(=O)NC1CCN(CCCOc2ccc(F)cc2)CC1OC (stereo not shown) [CISA, cisapride]",5,3,0,1,1.18 ± 0.40,2^[a],4^[a],3,,,,elevated risk,2.7,doubling or tripling,,
"O=C(NCC1CCCCN1)c1cc(OCC(F)(F)F)ccc1OCC(F)(F)F (stereo not shown) [FLE, flecainide]",3,1,1,0,1.92 ± 0.37,4^[a],1^[a],0,,,,elevated risk,,,,
COc1ccccc1OCC(O)CN1CCN(CC(=O)Nc2c(C)cccc2C)CC1 (stereo not shown) [ranolazine],,,,,,,,,,,,,,,,reasonably safe from causing TdP

# More lines, main results first:
"Chirality of Re-entry: Anticlock-wise ([1]; human, pH 7.4)","Chirality of Re-entry: Clock-wise ([1]; human, pH 7.4)","Chirality of Re-entry: Figure-of-eight ([1]; human, pH 7.4)","Chirality of Re-entry: Multi-origin ([1]; human, pH 7.4)","Frequency of re-entries (Mean ± SD) ([1]; human, pH 7.4)","No. of Re-entry, 1st dose ([1]; human, pH 7.4)","No. of Re-entry, 2nd dose ([1]; human, pH 7.4)","No. of Re-entry, 3rd dose ([1]; human, pH 7.4)",effect on AP at relatively low doses [1],"fold increase in risk compared to the vehicle control (DMSO) ([1]; human, 300 nM, pH 7.4) [fold]","reentrant events at relatively low doses ([1]; human, pH 7.4)",Compound,arrhythmic risk compared to the respective vehicle control (FIG. 3H) [1],"fold increase in incidence rate or arrhythmic risk normalized to corresponding vehicle control ([1]; human, pH 7.4) [fold]",risk of arrhythmia or sudden death during hospitalization ([2]; nested case-control study),serum concentration associated with clinical TdP ([2]; serum) [µM],"clinical QT prolongation / TdP liability ([2]; human, in vivo)"
3,0,0,0,1.53 ± 0.42,1^[a],2,0,,,,"CCN(CC)CCNC(=O)c1ccc(N)cc1 [PROC, procainamide]",elevated risk,2.3,,,
3,1,0,0,1.04 ± 0.31,0,0,4,no apparent effects on AP,1.2,0 of 16,"CC(C)(C)c1ccc(C(O)CCCN2CCC(C(O)(c3ccccc3)c3ccccc3)CC2)cc1 (stereo not shown) [TERF, terfenadine]",elevated risk,,,0.12,
0,1,1,0,1.34 ± 0.52,0,1^[a],1,,,,"Cc1cccc(C)c1NC(=O)C(C)N (stereo not shown) [TOC, tocainide]",lower risk,0.7,,,
